In patent US20100216886A1, “POLYMORPHS OF N2-(1,1'-BIPHENYL-4-YLCARBONYL)-N1-[2-(4-FLUOROPHENYL)-1,1-DIMETHYLETHYL]-L-ALPHA-GLUTAMINE” (Wyeth, priority 2006, published 2010):
In brackets after ≈: the same amount, converted by molar mass.

Experiments:
[1] = Forced degradation study (solution stability); assay type: physicochemical; conditions: 387 μg/mL with 25% acetonitrile in acid, base, peroxide and water under heat and light stress
Experimental: A forced degradation study was performed to generate potential degradation products and assess stability liabilities.

physchem = test: physchem
Experimental: The pH solubility profile was generated first with Sample D containing polymorph Form A, and then with Sample F containing polymorph Form B, in HCl/NaOH solutions. After 24 hour equilibration, suspensions were centrifuged and the supernatants assayed by HPLC.
The solubility data was analyzed as a function of pH using the Henderson-Hasselbach equation:
Solubility=S0·[10^(PH-pKa)+1],
where S0 is the intrinsic solubility of the free acid.

[2] = Second CACO-2 study, propranolol as reference; assay type: in vitro ADME; conditions: human, Caco-2
Source text: (§1) The second CACO-2 study gave somewhat different results (Table 12). Because metoprolol interferes with the LC/MS assay, propranolol, which has a permeability that is […] metoprolol, was used as the FDA calibration compound. The apical pH was controlled at 6 and basolateral pH at pH 7. In addition, verapamil was used as a competitive inhibitor of the Pgp (P-glycoprotein) transporter. The ratios to propranolol were 1.00 and 0.77 with and without verapamil. […] The B→A/A→B ratios were low at 0.3 and 0.3, with and without verapamil, respectively, indicating again no efflux […].

CACO-2 [3] = test: Second CACO-2 study, propranolol as reference; assay type: in vitro ADME; conditions: for Ratio to Propranolol: A → B
Source text: as §1

[4] = In situ rat perfusion model, metoprolol as reference; assay type: in vivo; conditions: rat
Source text: The permeability was 18.2 nm/sec, which is higher than the 14.5 nm/sec value obtained for metoprolol (Table 13).

[5] = Solubility in water and toxicology vehicle (animal formulation); assay type: physicochemical
Experimental: (§2) Solubility is enhanced slightly in the 2% Tween/0.5% methylcellulose toxicology vehicle, ranging from […]. 2% Tween may also increase GI membrane permeability.

[6] = Oral bioavailability in rat; conditions: in vivo, read-out: Oral bioavailability (F %)
Experimental: as §2
(§3) A prolonged absorption phase was observed together with decreasing bioavailability with increasing dose in both animal species. […] However, the absorption at pharmacological doses seemed reasonably complete albeit with delayed Tmax at lower GI when the drug is more soluble.

[7] = Oral bioavailability in dog; conditions: in vivo, read-out: Oral bioavailability (F %)
Experimental: as §2, §3

[8] = Solubility in various solvents at 25° C. and 50° C.; assay type: physicochemical
[9] = Slurry in water at 50° C. (polymorphic transformation); assay type: physicochemical; conditions: slurry in water at 50° C. for 12-24 hr
Experimental: Powder XRD patterns comparing the starting material to polymorph pseudo Form A are shown in FIG. 34, and DSC thermograms of both batches at 50° C. are shown in FIG. 35.

[10] = First CACO-2 study, metoprolol as reference; conditions: human; for recovery: Caco-2, pH 7.4, % Recovery, pH 7.4
CACO-2 [11] = test: First CACO-2 study, metoprolol as reference; conditions: for Ratio to Metoprolol: pH 7.4
[12] = Dynamic Vapor Sorption (DVS) analysis; assay type: physicochemical; conditions: room temperature, 6-hour equilibration period
Source text: Sample F was subject to Dynamic Vapor Sorption (DVS) analysis at room temperature. The sample was first analyzed by Karl Fischer (KF) titration containing initial moisture content of 3.7% for the monohydrate form. RH cycling started at 50% relative humidity (RH) to 100% RH and down to 0% RH and then back up to 100% RH. A 3-hour/step equilibration period was found insufficient, so the run was repeated with a 6-hour period, which was still not sufficient.
(§4) As a result, an equilibrium moisture study using desiccators containing saturated salt solutions for humidity control was performed. Sample F was incubated at 0%, 15%, 31%, 66%, 87%, and 100% RH in room temperature for up to 20 days. Samples were periodically assayed by KF titration to give the kinetic profiles. XRD analysis was performed at the end of 20 days. The data is summarized in Table 8 with kinetic and equilibrium data plotted in FIGS. 18 and 19.

[13] = Equilibrium moisture study in desiccators with saturated salt solutions (KF, XRD); assay type: physicochemical; conditions: for Moisture (%) 1-day / Moisture (%) 3-day / Moisture (%) 7-day / Moisture (%) 20-day / XRD Polymorph / Moisture (%) 4-day: room temperature; for XRD Polymorph: end of 20 days
Experimental: as §4, with “Sample F was incubated at 0%, 15%, 31%, 66%, 87%, and 100% RH in room temperature for up to 20 days.” left out

Solid state stability = assay type: physicochemical
Experimental: Sample F containing polymorph Form B was further investigated at 40° C./75% RH using open and closed vials for 3 months. […] Therefore, the monohydrate needs to be stored in hermetically sealed containers in order to prevent conversion to the sesquihydrate.

[14] = Polymorphic conversion study in aqueous media (2% Tween 80, water); assay type: physicochemical
Source text: Polymorphic conversion of Form A to Form B was not observed with Sample D in 2% Tween 80 or water.
Polymorph pseudo Form A was obtained from a scaled up preparation of polymorph Form A (Sample E).
The polymorphic conversion appeared to be slower in water than in the 2% Tween suspension, probably due to the lower solubility in water.
DSC data also supported this observation (FIG. 11).

[15] = Solubility in water and 2% Tw80 of samples used in toxicological formulation assessments; assay type: physicochemical; conditions: 2% Tw80
Source text: Table 6 summarizes various solid-state properties of samples used in toxicological formulation assessments.

CC(C)(Cc1ccc(F)cc1)NC(=O)[C@H](CCC(=O)O)NC(=O)c1ccc(-c2ccccc2)cc1 [Compound (I), N^2-(1,1′-biphenyl-4-ylcarbonyl)-N^1-[2-(4-fluorophenyl)-1,1-dimethylethyl]-L-α-glutamine]
Forced degradation result [1]: subject to acid and peroxide degradation
pKa (physchem): 5.3
solubility at 24 h (physchem; aqueous buffer, thermodynamic from solid, S0 (intrinsic solubility of the free acid)): 4.5 µg/mL (≈ 0.00944 mM)
Papp A→B ([2]; A → B, apical pH 6, basolateral pH 7, without verapamil): 62.4 ×10⁻⁶ cm/s
Papp B→A ([2]; B → A, apical pH 6, basolateral pH 7, without verapamil): 18.5 ×10⁻⁶ cm/s
efflux ratio ([2]; without verapamil, read-out: Ratio of B→A/A→B): 0.3
Ratio to Propranolol (CACO-2 [3]; plus Verapamil): 0.77
Ratio to Propranolol (CACO-2 [3]; without verapamil): 1.00
mean ratio to propranolol (CACO-2 [3]; average of values with and without verapamil): 0.88
Ratio of B→A/A→B (CACO-2 [3]; plus Verapamil): 0.3
Permeability classification (CACO-2 [3]; versus propranolol): low permeability
Ratio of B→A/A→B (CACO-2 [3]; without verapamil): 0.3
Papp at 20 μg/mL [4]: 1.82 ×10⁻⁶ cm/s
Permeability classification [4]: high permeability
Peff × 10^−1 (μm/sec) ([4]; in vivo, 20 μg/mL): 1.82 × 10^−1 μm/sec
Ratio to Metoprolol ([4]; in vivo, 20 μg/mL): 1.26
solubility ([5]; 2% Tween/0.5% methylcellulose toxicology vehicle, aqueous with cosolvent or surfactant or cyclodextrin, read-out: Solubility in toxicology vehicle): 220 to 470 µg/mL (≈ 0.462 to 0.986 mM)
resulting pH ([5]; water): around 5.5
solubility ([5]; water, pH 5.5, water, read-out: solubility in water): < 100 µg/mL
bioavailability ([6]; 100 mg/kg): ~100%
bioavailability ([6]; Tox suspension, 25 mg/kg): 29%
bioavailability ([7]; Tox suspension, 25 mg/kg): ~100%
bioavailability ([7]; capsule containing neat drug): 65%
solubility ([8]; Water, 25° C.): 1600 µg/mL (≈ 3.36 mM)
solubility ([8]; Water, 50° C.): 1800 µg/mL (≈ 3.78 mM)
solubility ([8]; organic solvent or mixture, Acetonitrile, 25° C.): 43000 µg/mL (≈ 90.2 mM)
solubility ([8]; organic solvent or mixture, Acetonitrile, 50° C.): > 133000 µg/mL
solubility ([8]; organic solvent or mixture, EtAc (ethyl acetate), 25° C.): > 109000 µg/mL
solubility ([8]; organic solvent or mixture, Ethanol, 25° C.): > 137000 µg/mL
solubility ([8]; organic solvent or mixture, Heptane, 25° C.): 700 µg/mL (≈ 1.47 mM)
solubility ([8]; organic solvent or mixture, Isopropyl acetate (IPAc), 25° C.): 76100 µg/mL (≈ 160 mM)
solubility ([8]; organic solvent or mixture, Isopropyl acetate (IPAc), 50° C.): > 123000 µg/mL
solubility ([8]; organic solvent or mixture, Isopropyl alcohol (IPA), 25° C.): > 122000 µg/mL
solubility ([8]; organic solvent or mixture, Toluene, 25° C.): 4300 µg/mL (≈ 9.02 mM)
solubility ([8]; organic solvent or mixture, Toluene, 50° C.): 15600 µg/mL (≈ 32.7 mM)
Change of powder XRD pattern or melting point / polymorphic transformation [9]: not observed
Papp A→B ([10]; Caco-2, pH 7.4): 14.9 ×10⁻⁶ cm/s
Papp B→A ([10]; Caco-2, pH 7.4): 37.4 ×10⁻⁶ cm/s
efflux ratio ([10]; Caco-2, pH 7.4): 2.36
recovery ([10]; A → B): 100%
recovery ([10]; B → A): 156%
Ratio to Metoprolol (CACO-2 [11]; A → B): 0.25
Ratio to Metoprolol (CACO-2 [11]; B → A): 0.59
Permeability classification (CACO-2 [11]; pH 7.4, versus metoprolol): low permeability

CC(C)(Cc1ccc(F)cc1)NC(=O)[C@H](CCC(=O)O)NC(=O)c1ccc(-c2ccccc2)cc1 [Form B, N^2-(1,1′-biphenyl-4-ylcarbonyl)-N^1-[2-(4-fluorophenyl)-1,1-dimethylethyl]-L-α-glutamine]
RH range in which the form is stable (DVS) [12]: 0-50 % RH
Moisture (%) 1-day ([13]; 0% RH): 3.48%
Moisture (%) 3-day ([13]; 0% RH): 3.55%
Moisture (%) 7-day ([13]; 0% RH): 3.57%
Moisture (%) 20-day ([13]; 0% RH): 2.78%
XRD Polymorph ([13]; 0% RH): Pattern B, Form B
Moisture (%) 1-day ([13]; 15% RH): 3.97%
Moisture (%) 4-day ([13]; 15% RH): 3.99%
Moisture (%) 7-day ([13]; 15% RH): 3.74%
Moisture (%) 20-day ([13]; 15% RH): 3.79%
XRD Polymorph ([13]; 15% RH): Pattern B, Form B
Moisture (%) 1-day ([13]; 31% RH): 3.61%
Moisture (%) 4-day ([13]; 31% RH): 5.01%
Moisture (%) 7-day ([13]; 31% RH): 3.93%
Moisture (%) 20-day ([13]; 31% RH): 3.79%
XRD Polymorph ([13]; 31% RH): Pattern B, Form B
Moisture (%) 1-day ([13]; 47% RH): 3.81%
Moisture (%) 3-day ([13]; 47% RH): 3.73%
Moisture (%) 7-day ([13]; 47% RH): 4.00%
Moisture (%) 20-day ([13]; 47% RH): 4.19%
XRD Polymorph ([13]; 47% RH): Pattern B, Form B
Moisture (%) 1-day ([13]; 66% RH): 5.12%
Moisture (%) 4-day ([13]; 66% RH): 5.28%
Moisture (%) 7-day ([13]; 66% RH): 5.34%
Moisture (%) 20-day ([13]; 66% RH): 5.1%
XRD Polymorph ([13]; 66% RH): Pattern C, Form C
Moisture (%) 1-day ([13]; 84% RH): 5.55%
Moisture (%) 3-day ([13]; 84% RH): 5.43%
Moisture (%) 7-day ([13]; 84% RH): 5.55%
Moisture (%) 20-day ([13]; 84% RH): 5.71%
XRD Polymorph ([13]; 84% RH): Pattern C, Form C
Moisture (%) 1-day ([13]; 100% RH): 5.55%
Moisture (%) 4-day ([13]; 100% RH): 8.08%
Moisture (%) 7-day ([13]; 100% RH): 6.14%
Moisture (%) 20-day ([13]; 100% RH): 6.22%
XRD Polymorph ([13]; 100% RH): Pattern C, Form C
RH range at which the form is present by XRD ([13]; Sample F incubated at room temperature, 20 days, listed as monohydrate): 0-47 % RH
Moisture (%) T = 0 ([13]; initial, KF titration): 3.82%
HPLC Impurity (%) (Solid state stability; 40 C./75% RH Closed, 4 wk): 0.34%
KF (%) (Solid state stability; 40 C./75% RH Closed, 4 wk): 5.35%
XRD Polymorph (Solid state stability; 40 C./75% RH Closed, 4 wk): Form C Pattern C
HPLC Impurity (%) (Solid state stability; 40 C./75% RH Closed, 8 wk): 0.41%
KF (%) (Solid state stability; 40 C./75% RH Closed, 8 wk): 5.79%
XRD Polymorph (Solid state stability; 40 C./75% RH Closed, 8 wk): Form C Pattern C
HPLC Impurity (%) (Solid state stability; 40 C./75% RH Open, 4 wk): 0.36%
KF (%) (Solid state stability; 40 C./75% RH Open, 4 wk): 5.34%
XRD Polymorph (Solid state stability; 40 C./75% RH Open, 4 wk): Form C Pattern C
HPLC Impurity (%) (Solid state stability; 40 C./75% RH Open, 8 wk): 0.49%
KF (%) (Solid state stability; 40 C./75% RH Open, 8 wk): 5.53%
XRD Polymorph (Solid state stability; 40 C./75% RH Open, 8 wk): Form C Pattern C
Duration of sufficient heat stability (Solid state stability; 40° C./75% RH): at least 3 months
HPLC Impurity (%) (Solid state stability; Initial, time 0): 0.30%
KF (%) (Solid state stability; Initial, time 0): 3.82%
XRD Polymorph (Solid state stability; Initial, time 0): Form B Pattern B

CC(C)(Cc1ccc(F)cc1)NC(=O)[C@H](CCC(=O)O)NC(=O)c1ccc(-c2ccccc2)cc1 [Sample E, N^2-(1,1′-biphenyl-4-ylcarbonyl)-N^1-[2-(4-fluorophenyl)-1,1-dimethylethyl]-L-α-glutamine]
Polymorphic conversion / Polymorph Form after stirring ([14]; suspension 100 mg/mL in 2% Tween 80, ambient conditions, about 0.5 hr): transformation of pseudo Form A to Form B
Polymorphic conversion / Polymorph Form after stirring ([14]; suspension 100 mg/mL in water, overnight (~18 hr), ambient conditions): transformation of pseudo Form A to Form B
Solubility, 2% Tw80 [15]: 330 µg/mL (≈ 0.692 mM)
pH of 2% Tw80 solubility sample [15]: 5.6
Change of powder XRD pattern or melting point / polymorphic transformation [9]: transformed to a lower melting point polymorph form
